Results taken from patent US20060052459A1, “Antifungal medicaments comprising arylamidine derivatives” (priority 2002, published 2006).
Read-outs that look alike come from different tables or passages of the source.

What was measured:
[1] = tested on: Candida albicans strains IP 48.72 (ATCC 10231); experiment: In vitro antifungal growth inhibition on microtitre plates (optical density 590 nm), compounds alone or as mixtures (Wadley method); type: cell-based; settings: Candida albicans, ATCC10231, 48 h, 48 hours at 30° C.; for inhibition at 0.026 µg/mL: dose 0.026 μg/ml; for inhibition at 0.098 µg/mL: dose 0.098 μg/ml; for inhibition at 0.39 µg/mL: dose 0.39 μg/ml; for inhibition at 1.562 µg/mL: dose 1.562 μg/ml; for inhibition at 6.25 µg/mL: dose 6.25 μg/ml; for inhibition at 25 µg/mL: dose 25 μg/ml; for inhibition at 100 µg/mL: dose 100 μg/ml; for EC50: read-out: EC50
Experimental: (§1) The following fungi were used for this study: Candida albicans strains IP 48.72 (ATCC 10231) and Aspergillus fumigatus strain IP 864.64 obtained from the Collection Nationale de Cultures de Microorganismes (CNCM) of the Institut Pasteur. The strains are cultured on Yeast Extract-Peptone-Dextrose (YEPD) agar medium comprising 0.5% yeast extract, 0.5% bactopeptone, 2% glucose and 2% agar at 30° C. and in the dark.
(§2) All these compounds were prepared in a DMSO solution at a final concentration of 100 mg/ml. The stock solutions are stored at −20° C. up to the time of use.
(§3) The trials are carried out in RPMI 1640 medium with no sodium bicarbonate, but with L-glutamine buffered with 0.165 mol per litre of 3-[N-morpholino]propanesulphonic acid (MOPS), enriched (<>) or otherwise (<>) with 2% glucose. The pH of this medium is adjusted to 7.0. The medium is sterilized by filtration (0.22 μm) and stored at 4° C. up to the time of use.
(§4) All the antifungal tests are carried out on microtitre plates. The initial suspensions of spores are prepared in a sterile solution containing 0.85% NaCl, supplemented with Tween 80 at 0.01%. These initial suspensions are then diluted in the culture medium (RPMI 1640 enriched or otherwise with 2% glucose) to a final concentration of 10^4 spores per ml. The measurements of viability of each inoculum are verified by subcultures of a volume of 300 μl on YEPD agar medium.
(§5) The antifungal compounds are tested in a range of concentrations ranging from 0.026 to 100 μg of active ingredient/ml. These antifungal compounds are then diluted in RPMI 1640 medium enriched or otherwise with 2% glucose. A final DMSO concentration of 0.2% is used throughout the measurements. Each trial is carried out on a series of dilutions of antifungal compounds, in duplicate. The antifungal dilutions (0.1 ml) and the fungal inoculum (0.1 ml) are added to each of the wells of the microtitre plate. The plates are then read with a spectrophotometer (ELX 800UV Bio-Tek Instruments, Inc) at a wavelength of 590 nm. The plates are read immediately after (t=0) and after 48 hours' incubation at 30° C. and in the dark. The optical density values obtained are correlated with fungal growth between the times t=0 and t=48 hours. The optical density values are used to calculate the percentage inhibition of growth for each concentration of antifungals by comparison with the control. The values are then used to plot a dose-response curve and the EC50 value is determined for each fungus and each compound with the aid of the Grafit 5.0® software (Erithacus software Ltd).
(§6) The method which was used to measure the type of interaction existing between the antifungal compounds in the form of mixtures is the Wadley method.
(§7) In the Wadley approach, the dose-response curve for each of the compounds A and B, and for the mixture AB, is constructed. The EC50 is calculated for each compound taken individually and for the mixture. If a and b are the absolute quantities of the compounds A and B in the mixture (a=1, b=1, a+b=2 under our conditions), the expected effective concentration (EC50exp) may be calculated in the following manner: EC50exp=(a+b)/[a/EC50A)+b/(EC50B)
(§8) The Wadley approach may be used to estimate the type of interaction existing between the fungal compounds, regardless of their concentration. Its reliability is not dependent on the percentage inhibition. The type of interaction between two compounds is given by the level of interaction (LI) which corresponds to the ratio between the expected effective concentration (EC50exp) and that observed (EC50obs) of the mixture. The nature of the interaction obtained by the Wadley formula is presented in Table 1 (see U. Gisi, Synergistic interaction in fungicide mixtures, 1996. Phytopathology 86, 1273-1279) below.
(§9) The experimental conditions are the same as previously described.

[2] = tested on: Aspergillus fumigatus strain IP 864.64; experiment: as above; type: cell-based; settings: Aspergillus fumigatus, IP864.64, 48 h, 48 hours at 30° C.; for inhibition at 0.026 µg/mL: dose 0.026 μg/ml; for inhibition at 0.098 µg/mL: dose 0.098 μg/ml; for inhibition at 0.39 µg/mL: dose 0.39 μg/ml; for inhibition at 1.562 µg/mL: dose 1.562 μg/ml; for inhibition at 6.25 µg/mL: dose 6.25 μg/ml; for inhibition at 25 µg/mL: dose 25 μg/ml; for inhibition at 100 µg/mL: dose 100 μg/ml
Experimental: as §1, §2, §3, §4, §5, §6, §7, §8, §9

[3] = minimal RPMI 1640 medium (MM), used alone
[4] = rich RPMI 1640 medium (RM), used alone
[5] = second study, strain IP 48.72, RPMI 1640 medium enriched with 2% glucose
[6] = second study, strain IP 864.64, RPMI 1640 medium enriched with 2% glucose, read-out: EC50

Row | Compound | inhibition at 0.026 µg/mL ([1]; minimal RPMI 1640 medium (MM)) [%] | inhibition at 0.026 µg/mL ([1]; rich RPMI 1640 medium (RM)) [%] | inhibition at 0.098 µg/mL ([1]; minimal RPMI 1640 medium (MM)) [%] | inhibition at 0.098 µg/mL ([1]; rich RPMI 1640 medium (RM)) [%] | inhibition at 0.39 µg/mL ([1]; minimal RPMI 1640 medium (MM)) [%] | inhibition at 0.39 µg/mL ([1]; rich RPMI 1640 medium (RM)) [%] | inhibition at 1.562 µg/mL ([1]; minimal RPMI 1640 medium (MM)) [%] | inhibition at 1.562 µg/mL ([1]; rich RPMI 1640 medium (RM)) [%] | inhibition at 6.25 µg/mL ([1]; minimal RPMI 1640 medium (MM)) [%] | inhibition at 6.25 µg/mL ([1]; rich RPMI 1640 medium (RM)) [%] | inhibition at 25 µg/mL ([1]; minimal RPMI 1640 medium (MM)) [%] | inhibition at 25 µg/mL ([1]; rich RPMI 1640 medium (RM)) [%] | inhibition at 100 µg/mL ([1]; minimal RPMI 1640 medium (MM)) [%] | inhibition at 100 µg/mL ([1]; rich RPMI 1640 medium (RM)) [%] | EC50 [1, 3] [µg/mL] | EC50 [1, 4] [µg/mL] | EC50 [1, 5] [µg/mL] | inhibition at 0.026 µg/mL ([2]; minimal RPMI 1640 medium (MM)) [%] | inhibition at 0.026 µg/mL ([2]; rich RPMI 1640 medium (RM)) [%] | inhibition at 0.098 µg/mL ([2]; minimal RPMI 1640 medium (MM)) [%] | other results
1 | OC(Cn1cncn1)(Cn1cncn1)c1ccc(F)cc1F [Compound II.1, fluconazole] | 2.1 | 11.1 | 9.7 | 32.5 | 38.5 | 72.6 | 64.7 | 86.8 | 77.7 | 94 | 81.9 | 95.3 | 91.6 | 36.1 | 0.96 | 0.19 | 0.354 | 4.8 | 11.2 | 4.8 | inhibition at 0.098 µg/mL ([2]; rich RPMI 1640 medium (RM)): 20.7%; inhibition at 0.39 µg/mL ([2]; minimal RPMI 1640 medium (MM)): 5.8%; inhibition at 0.39 µg/mL ([2]; rich RPMI 1640 medium (RM)): 25.9%; inhibition at 1.562 µg/mL ([2]; minimal RPMI 1640 medium (MM)): 8.7%; inhibition at 1.562 µg/mL ([2]; rich RPMI 1640 medium (RM)): 27.6%; inhibition at 6.25 µg/mL ([2]; minimal RPMI 1640 medium (MM)): 7.7%; inhibition at 6.25 µg/mL ([2]; rich RPMI 1640 medium (RM)): 28.4%; inhibition at 25 µg/mL ([2]; minimal RPMI 1640 medium (MM)): 23.1%; inhibition at 25 µg/mL ([2]; rich RPMI 1640 medium (RM)): 48.3%; inhibition at 100 µg/mL ([2]; minimal RPMI 1640 medium (MM)): 41.4%; inhibition at 100 µg/mL ([2]; rich RPMI 1640 medium (RM)): 46.6%; EC50 ([2]; minimal RPMI 1640 medium (MM), extrapolated with Grafit 5.0, read-out: EC50 (extrapolated from the dose-response curves)): 575 µg/mL; EC50 ([2]; rich RPMI 1640 medium (RM), extrapolated with Grafit 5.0, read-out: EC50 (extrapolated from the dose-response curves)): 125 µg/mL; EC50 [2, 6]: 125 µg/mL
2 | CCC(C)n1ncn(-c2ccc(N3CCN(c4ccc(OCC5COC(Cn6cncn6)(c6ccc(Cl)cc6Cl)O5)cc4)CC3)cc2)c1=O (centres unmarked) [Compound II.2, itraconazole] | 58.1 | 44.7 | 75.4 | 85.1 | 78.2 | 86.2 | 74.6 | 85.1 | 78.6 | 86.2 | 87.9 | 95.2 | 95.2 | 95.2 | 0.022 | 0.017 | 0.082 | 2.2 | 18.6 | 31.8 | inhibition at 0.098 µg/mL ([2]; rich RPMI 1640 medium (RM)): 47.5%; inhibition at 0.39 µg/mL ([2]; minimal RPMI 1640 medium (MM)): 49.3%; inhibition at 0.39 µg/mL ([2]; rich RPMI 1640 medium (RM)): 88.6%; inhibition at 1.562 µg/mL ([2]; minimal RPMI 1640 medium (MM)): 99.6%; inhibition at 1.562 µg/mL ([2]; rich RPMI 1640 medium (RM)): 99.2%; inhibition at 6.25 µg/mL ([2]; minimal RPMI 1640 medium (MM)): 100%; inhibition at 6.25 µg/mL ([2]; rich RPMI 1640 medium (RM)): 100%; inhibition at 25 µg/mL ([2]; minimal RPMI 1640 medium (MM)): 100%; inhibition at 25 µg/mL ([2]; rich RPMI 1640 medium (RM)): 100%; inhibition at 100 µg/mL ([2]; minimal RPMI 1640 medium (MM)): 99%; inhibition at 100 µg/mL ([2]; rich RPMI 1640 medium (RM)): 100%; EC50 ([2]; minimal RPMI 1640 medium (MM), used alone, read-out: EC50): 0.27 µg/mL; EC50 ([2]; rich RPMI 1640 medium (RM), used alone, read-out: EC50): 0.27 µg/mL; EC50 [2, 6]: 0.187 µg/mL
